The text below walks through data of patent US20230414632A1, “INHIBITION OF THE HIV-1 REPLICATION BY COMPOUNDS DIRECTED AGAINST A NEW TARGET OF THE VIRAL CYCLE” (priority 2020, published 2023).

For data set [1], the system named is MT4 cells. The data set can be described thus: Cell survival / cellular toxicity in infected MT4 cells (flow cytometry). Type of data set: cell-based. To be noted: up to 10 μM compound, day 5, MT4 cells. On the procedure:
For HIV-1 gfp+ vectors, viral replication is followed by GFP expression [i.e. the percentage and geometric mean fluorescence intensity (MFI) of GFP^+ cells]. Infectivity was estimated by flow cytometry using a FACSCalibur™ cytofluorometer (BD Biosciences). Toxicity is also assessed by flow cytometry (side and forward scatter).
At J0 (day zero) MT4 cells was used for infection with HIV gfp+ virus at multiplicity of infection (m.o.i.) reaching 0.1-0.2 (50 ng of p24^gag antigen per 10^6 cells). Two days post-infection (J2), MT4 cells are washed extensively (3 times with PBS) and resuspended using fresh RPMI medium (2×10^5 cells per ml) and plated into 6 well plates (2 ml per well) in the presence of compounds of formula I or II at various molecules concentrations. A control not infected with the virus (MT4 Ninf), or brought into contact with DMSO (inf DMSO, the solvent of compounds of formula I or II), or with dolutegravir (DTG) at 100 nM, a known inhibitor of the integrase, are conducted in parallel. At time J5 (day five), cells are then collected for cytometry analysis to quantify the production of viral particles and cell survival.

Data set [2] addresses interaction between the HIV-1 integrase (IN) and the catalytic domain of the human mitochondrial lysyl-tRNA synthetase (mLysRS) (Homo sapiens (Human), UniProt P12497+Q15046). The data set can be described thus: HTRF assay of the mLysRS:IN interaction. Type of data set: binding, HIV-1 / human. The conditions noted are these: compound from 17 to 666 μM. On the procedure:
Experiments were performed on the interaction between the HIV-1 integrase (IN) and the catalytic domain of the human mitochondrial lysyl-tRNA synthetase (mLysRS), which constitutes the main contribution to the Gag Pol:mLysRS interaction.
Homogeneous time-resolved fluorescence (HTRF) assays were performed in black, half-area, flat bottom, 96-well microplates (Costar #3694). Human mitochondrial LysRS with a C-terminal HA-tag (mLysRS-HA), diluted in HTRF buffer (10 mM Tris-HCl pH 7.5, 50 mM NaCl, 10 mM 2-mercaptoethanol, BSA at 1 mg/ml) was added (20 μl at a dimer concentration of 3.75 nM) in the wells of microplates placed on ice. Compounds of formula I or II (1 μl of a 10 mM solution in DMSO) were then added to the wells, and mixing was achieved by pipetting up and down 3-times 10 μl. […]
A 10 μl solution of KF prepared in HTRF buffer at a concentration of 250 mM was then added and mixing was achieved by pipetting up and down 3-times 20 μl. After centrifugation at 900 g for 3 min at 4° C., fluorescence of Eu^3+ cryptate and of XL665 was recorded at 620 nm (I620) and 665 nm (I665), respectively, after excitation of Eu^3+ cryptate at 317 nm, in an Infinite M1000 PRO microplate reader (TECAN). Results are expressed as the ratio of I665/I620. The HTRF signal corresponds to the ratio of fluorescence at 665 and 620 nm (I665/I620). […]
(Time-resolved FRET reads energy transfer from a long-lived donor to a nearby acceptor.)

Data set [3] relates to HIV-1 gfp+ virus in MT4 cells. The data set can be described thus: Ex-vivo inhibition of HIV-1 replication (multi-cycle, HIV-1 gfp+ in MT4 cells, flow cytometry). Type of data set: cell-based. The conditions noted are these: 10 μM compound, day 5, MT4 cells infected with HIV gfp+. On the procedure: Ability of compounds of formula I or II to inhibit the HIV-1 replicative cycle ex vivo was conducted by methods commonly used in antiretroviral pharmacology.
MT4 cell line (Charneau et al. J. Virol. 1992, 66:2814) were maintained in RPMI 1640. HEK293T were maintained in Dulbecco's Modified Eagle Medium (DMEM). All media were supplemented with Glutamax and with 10% heat-inactivated fetal calf serum (Hyclone) and 1% penicillin/streptomycin (100 units/mL) (Gibco). All media were purchased from Gibco (Life Technologies Co.). All cell lines used here were incubated at 37° C., under 5% CO2 atmosphere. […]
For HIV-1 gfp+ vectors, viral replication is followed by GFP expression [i.e. the percentage and geometric mean fluorescence intensity (MFI) of GFP^+ cells]. […] Toxicity is also assessed by flow cytometry (side and forward scatter).
At J0 (day zero) MT4 cells was used for infection with HIV gfp+ virus at multiplicity of infection (m.o.i.) reaching 0.1-0.2 (50 ng of p24^gag antigen per 10^6 cells). […] At time J5 (day five), cells are then collected for cytometry analysis to quantify the production of viral particles and cell survival.
For orientation: Flow cytometry measures light scatter and fluorescence of single cells or particles in a stream.

interaction between the HIV-1 integrase (IN) and the catalytic domain of the human mitochondrial lysyl-tRNA synthetase (mLysRS), sequence (Q15046 whole entry, looked up, other chains not shown, the tested form may be a part): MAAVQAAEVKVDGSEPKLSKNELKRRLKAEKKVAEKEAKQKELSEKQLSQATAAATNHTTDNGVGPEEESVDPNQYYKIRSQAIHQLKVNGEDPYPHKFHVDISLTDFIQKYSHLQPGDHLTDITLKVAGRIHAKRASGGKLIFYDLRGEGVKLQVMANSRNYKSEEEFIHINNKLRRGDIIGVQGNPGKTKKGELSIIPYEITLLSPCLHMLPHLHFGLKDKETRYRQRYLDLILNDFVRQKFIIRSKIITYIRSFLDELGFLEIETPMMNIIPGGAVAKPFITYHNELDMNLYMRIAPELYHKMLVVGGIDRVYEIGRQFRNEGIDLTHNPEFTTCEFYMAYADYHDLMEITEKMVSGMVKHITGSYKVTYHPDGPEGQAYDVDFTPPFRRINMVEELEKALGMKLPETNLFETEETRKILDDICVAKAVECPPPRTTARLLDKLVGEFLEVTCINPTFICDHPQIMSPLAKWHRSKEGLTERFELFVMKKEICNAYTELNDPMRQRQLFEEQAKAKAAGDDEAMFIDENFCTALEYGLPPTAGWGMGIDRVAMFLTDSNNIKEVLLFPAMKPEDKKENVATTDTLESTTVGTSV

For `CCOC(=O)C1=C(C)NC(C)=C(C(=O)OCC)C1c1ccccc1/C=C/C(=O)OC(C)(C)C` [I-a], the cellular toxicity result in data set [1] is listed as “no cellular toxicity has been observed”.

Take `COCCOC(=O)C1=C(C)NC(C)=C(C(=O)OC/C=C/c2ccccc2)C1c1cccc([N+](=O)[O-])c1` (stereo not drawn) [I-b]: in data set [1], the cellular toxicity result is reported as “no cellular toxicity has been observed”.

For orientation: IC50 means the point on the concentration scale where inhibition reaches its midpoint. As to `CC1=C(C(=O)OC(C)C)C(c2cccc([N+](=O)[O-])c2)C(C(=O)OC2CN(C(c3ccccc3)c3ccccc3)C2)=C(N)N1` (stereo not drawn) [I-d], the half-maximal inhibitory concentration (IC50) in data set [2] stood at 400 ± 150 µM.

On to `CN1CCCC(n2nc(Cc3ccc(Cl)cc3)c3ccccc3c2=O)CC1` (stereo not drawn) [II-a], for which, in data set [3], the “production of viral particles” value is reported as “greatly reduced”. Moreover, the cellular toxicity entry in data set [1] is recorded as “no cellular toxicity has been observed”. Further, in data set [2], the 50% inhibitory concentration (IC50) amounted to 300 ± 50 µM.
